Values of other authors as cited in patent publication US9855513B2, “Method for producing concentrated aqueous solution of organic compound” (Kao Corporation, priority 2012, dated 2018).

Conditions: in a water of 100 g at 25° C.

solubility degree: ∞
Compound: OCC(O)CO [glycerol]
